Read-outs that look alike come from different tables or passages of the source.
Assays:
[1] = biological target: Ba/F3-EGFR-D770_N771insSVD cells (Homo sapiens, UniProt P00533, DUP768-770, cells depend on it); experiment: Ba/F3 cell survival assay, EGFR D770_N771insSVD; format: cell-based; details: Cell Titer-Glo, 48 h, without IL-3; Table 4; read-out: BA/F3 (insSVD) IC50
Bub1 = biological target: T1, Bub1 (Homo sapiens, UniProt O43683); experiment: Bub1 high ATP kinase assay (TR-FRET); format: biochemical; details: 2 mM ATP, Table 3
T1 construct: catalytic domain of human Bub1 (amino acids 704-1085); His6 (N); made in house; host or cells: insect cells (Hi5)
Procedure, shortened: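 Enzyme was His6-tagged human Bub1 catalytic domain (aa 704-1085) from Hi5 insect cells, typically about 200 ng/ml, with a biotinylated peptide substrate at high ATP. Reaction ran 60 min at 22 °C, then was stopped with EDTA. Phosphopeptide was detected by TR-FRET (anti-phosphoserine antibody, Eu-labelled anti-mouse IgG, streptavidin-XL665), read as the 665/620 nm emission ratio.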

Ba/F3-EGFR-WT cells = Ba/F3-EGFR-WT cells (Homo sapiens, UniProt P00533); experiment: Ba/F3 cell survival assay, wild type EGFR; format: cell-based; details: Cell Titer-Glo, 48 h, with 10 ng/mL EGF; Table 4; read-out: BA/F3 (wild type) IC50
[2] = biological target: T2, EGFR with insertion SVD between D770 and N771 (mutEGFR D770_N771insSVD) (Homo sapiens, UniProt P00533, DUP768-770); experiment: Exon20-Mutant-EGFR(D770_N771insSVD) kinase assay (TR-FRET); format: biochemical; details: 2 mM ATP, Table 2
T2 construct: amino acids R669 to A1210; made in house; host or cells: Sf9 insect cells (baculovirus)

[3] = Bub1 high ATP (2 mM) IC50, TR-FRET

T1 sequence (O43683 704-1085): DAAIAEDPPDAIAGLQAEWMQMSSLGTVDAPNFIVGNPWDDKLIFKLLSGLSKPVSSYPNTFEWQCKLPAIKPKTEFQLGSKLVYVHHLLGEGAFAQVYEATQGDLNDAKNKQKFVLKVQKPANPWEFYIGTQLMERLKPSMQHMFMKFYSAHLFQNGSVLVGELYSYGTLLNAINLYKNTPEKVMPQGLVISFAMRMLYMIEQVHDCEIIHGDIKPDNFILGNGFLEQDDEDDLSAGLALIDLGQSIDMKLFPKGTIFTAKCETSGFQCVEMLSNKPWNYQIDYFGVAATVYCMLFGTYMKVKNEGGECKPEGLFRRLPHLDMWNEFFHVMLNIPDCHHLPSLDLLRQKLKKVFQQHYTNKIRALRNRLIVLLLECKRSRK
T2 sequence (P00533 other isoform, or with tags, fused parts or gaps DUP768-770): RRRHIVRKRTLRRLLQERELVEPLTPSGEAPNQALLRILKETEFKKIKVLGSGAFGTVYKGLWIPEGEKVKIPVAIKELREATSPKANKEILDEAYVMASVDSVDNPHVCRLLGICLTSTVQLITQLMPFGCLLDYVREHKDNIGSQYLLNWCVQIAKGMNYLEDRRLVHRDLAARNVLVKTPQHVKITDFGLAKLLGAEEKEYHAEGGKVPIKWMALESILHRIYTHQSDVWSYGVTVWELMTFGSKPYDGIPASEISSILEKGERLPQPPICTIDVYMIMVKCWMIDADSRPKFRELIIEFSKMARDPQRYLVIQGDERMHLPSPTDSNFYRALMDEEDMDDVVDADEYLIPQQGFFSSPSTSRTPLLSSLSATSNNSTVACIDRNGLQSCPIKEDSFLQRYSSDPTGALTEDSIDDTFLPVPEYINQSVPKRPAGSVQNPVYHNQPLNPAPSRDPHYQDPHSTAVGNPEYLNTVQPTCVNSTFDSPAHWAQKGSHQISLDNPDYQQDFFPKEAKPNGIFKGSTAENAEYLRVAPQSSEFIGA
Chain of Ba/F3-EGFR-WT cells (P00533 whole entry, looked up, stated change not applied): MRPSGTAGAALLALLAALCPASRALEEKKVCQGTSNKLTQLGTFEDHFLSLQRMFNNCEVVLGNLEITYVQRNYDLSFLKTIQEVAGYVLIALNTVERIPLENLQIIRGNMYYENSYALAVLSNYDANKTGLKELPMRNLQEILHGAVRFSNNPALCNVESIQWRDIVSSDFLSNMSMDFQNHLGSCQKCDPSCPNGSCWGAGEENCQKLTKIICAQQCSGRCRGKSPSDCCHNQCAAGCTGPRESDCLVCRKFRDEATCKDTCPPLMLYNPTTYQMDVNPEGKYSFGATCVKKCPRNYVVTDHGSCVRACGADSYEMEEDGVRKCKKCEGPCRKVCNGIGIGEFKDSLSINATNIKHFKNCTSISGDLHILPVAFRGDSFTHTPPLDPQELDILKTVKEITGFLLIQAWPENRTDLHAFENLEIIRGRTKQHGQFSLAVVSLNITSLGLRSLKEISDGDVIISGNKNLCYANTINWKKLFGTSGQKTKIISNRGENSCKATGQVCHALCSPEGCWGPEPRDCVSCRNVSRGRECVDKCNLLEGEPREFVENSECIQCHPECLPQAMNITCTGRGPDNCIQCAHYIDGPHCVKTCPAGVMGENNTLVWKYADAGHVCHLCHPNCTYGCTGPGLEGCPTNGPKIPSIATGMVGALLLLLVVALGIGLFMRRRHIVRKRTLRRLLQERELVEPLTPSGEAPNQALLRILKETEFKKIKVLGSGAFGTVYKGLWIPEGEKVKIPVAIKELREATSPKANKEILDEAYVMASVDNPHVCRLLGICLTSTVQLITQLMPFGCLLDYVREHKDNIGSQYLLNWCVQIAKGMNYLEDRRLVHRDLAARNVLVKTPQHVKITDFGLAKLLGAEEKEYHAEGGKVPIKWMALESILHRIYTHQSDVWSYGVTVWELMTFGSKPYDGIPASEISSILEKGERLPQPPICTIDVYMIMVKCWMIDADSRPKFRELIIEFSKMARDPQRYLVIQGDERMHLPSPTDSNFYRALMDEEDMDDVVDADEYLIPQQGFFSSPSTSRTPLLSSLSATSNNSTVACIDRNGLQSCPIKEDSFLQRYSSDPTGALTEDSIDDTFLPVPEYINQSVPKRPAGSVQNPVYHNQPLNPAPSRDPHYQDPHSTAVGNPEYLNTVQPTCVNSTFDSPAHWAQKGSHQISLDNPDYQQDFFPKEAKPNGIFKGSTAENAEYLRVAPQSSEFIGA
Chain of Ba/F3-EGFR-D770_N771insSVD cells (P00533 with tags, fused parts or gaps DUP768-770): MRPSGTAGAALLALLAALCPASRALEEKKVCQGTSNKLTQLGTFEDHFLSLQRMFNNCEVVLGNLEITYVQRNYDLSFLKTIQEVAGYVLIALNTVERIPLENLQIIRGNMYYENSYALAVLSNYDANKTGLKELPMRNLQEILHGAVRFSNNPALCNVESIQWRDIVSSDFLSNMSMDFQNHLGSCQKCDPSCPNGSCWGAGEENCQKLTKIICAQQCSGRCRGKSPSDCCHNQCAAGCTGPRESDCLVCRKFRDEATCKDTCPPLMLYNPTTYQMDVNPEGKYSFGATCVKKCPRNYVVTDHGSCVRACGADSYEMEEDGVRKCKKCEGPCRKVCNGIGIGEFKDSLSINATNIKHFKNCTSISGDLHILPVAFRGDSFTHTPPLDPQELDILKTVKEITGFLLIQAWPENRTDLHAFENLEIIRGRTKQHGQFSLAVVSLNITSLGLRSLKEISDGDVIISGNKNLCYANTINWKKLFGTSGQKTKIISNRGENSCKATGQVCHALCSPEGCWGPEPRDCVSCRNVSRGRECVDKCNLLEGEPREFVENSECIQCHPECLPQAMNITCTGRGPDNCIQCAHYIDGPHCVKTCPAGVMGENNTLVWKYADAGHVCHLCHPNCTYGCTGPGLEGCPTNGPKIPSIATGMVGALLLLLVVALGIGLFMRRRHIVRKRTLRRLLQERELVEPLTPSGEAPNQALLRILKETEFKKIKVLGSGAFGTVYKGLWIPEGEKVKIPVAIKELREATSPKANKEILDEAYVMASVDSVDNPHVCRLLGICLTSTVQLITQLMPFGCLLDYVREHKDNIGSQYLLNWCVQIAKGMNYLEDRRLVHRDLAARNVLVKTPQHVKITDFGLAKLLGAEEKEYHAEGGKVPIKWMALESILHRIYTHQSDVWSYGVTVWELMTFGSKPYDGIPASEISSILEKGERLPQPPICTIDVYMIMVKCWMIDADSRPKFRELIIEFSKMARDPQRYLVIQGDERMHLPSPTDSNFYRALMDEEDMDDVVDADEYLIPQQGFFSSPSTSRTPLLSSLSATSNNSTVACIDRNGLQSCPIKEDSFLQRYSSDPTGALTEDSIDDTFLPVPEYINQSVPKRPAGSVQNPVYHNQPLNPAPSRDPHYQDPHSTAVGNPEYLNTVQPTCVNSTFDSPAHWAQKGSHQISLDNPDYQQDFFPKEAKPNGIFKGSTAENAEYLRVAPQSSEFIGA

| SMILES | IC50 (Bub1; [3]) | mutEGFR (D770_N771insSVD) kinase assay IC50 [2] | IC50 (Bub1; read-out: Bub1 high ATP (2 mM) IC50, TR-FRET) | GI50 [1] | GI50 (Ba/F3-EGFR-WT cells) |
| --- | --- | --- | --- | --- | --- |
| COc1c(Cl)cccc1Nc1c(-c2ccncc2OC[C@@H]2CCCO2)[nH]c2c1C(=O)NCC2CCO (single isomer, unassigned) [Example 17] | > 20000 nM | 0.238 nM | – | 230 nM | 1580 nM |
| Cc1c(Cl)cccc1Nc1c(-c2ccncc2OC[C@@H]2CCCO2)[nH]c2c1C(=O)NCC2C (single isomer, unassigned) [Example 59] | 16400 nM | 0.285 nM | – | 41.9 nM | 609 nM |
| C[C@@H]1Cc2[nH]c(-c3ccncc3OC[C@@H]3CCCO3)c(Nc3cccc(F)c3CC(F)F)c2C(=O)N1 [Example 63, (6R)-3-[2-(2,2-difluoroethyl)-3-fluoroanilino]-6-methyl-2-(3-{[(2S)-oxolan-2-yl]methoxy}pyridin-4-yl)-1,5,6,7-tetrahydro-4H-pyrrolo[3,2-c]pyridin-4-one] | 14100 nM | 0.211 nM | – | 117 nM | 1170 nM |
| COc1c(Cl)cccc1Nc1c(-c2ccncc2OC[C@@H]2CN(CC(F)F)CCO2)[nH]c2c1C(=O)N[C@H](C)C2 [Example 12, (6R)-3-(3-chloro-2-methoxyanilino)-2-(3-{[(2S)-4-(2,2-difluoroethyl)morpholin-2-yl]methoxy}pyridin-4-yl)-6-methyl-1,5,6,7-tetrahydro-4H-pyrrolo[3,2-c]pyridin-4-one] | > 20000 nM | 0.172 nM | – | 48.7 nM | 719 nM |
| COCC(C)Oc1cnccc1-c1[nH]c2c(c1Nc1cccc(Cl)c1OC)C(=O)N[C@H](C)C2 (single isomer, unassigned) [Example 42] | 8810 nM | 0.213 nM | – | 15.3 nM | 531 nM |
| COc1c(Cl)cccc1Nc1c(-c2ccncc2OC[C@@H]2COCCN2C)[nH]c2c1C(=O)NCC2CCF (single isomer, unassigned) [Example 90] | 3880 nM | 0.499 nM | – | 83.8 nM | 1170 nM |
| CCc1c(Cl)cccc1Nc1c(-c2ccncc2OC[C@@H]2CCCO2)[nH]c2c1C(=O)N[C@H](C)C2 [Example 109, (6R)-3-(3-chloro-2-ethylanilino)-6-methyl-2-(3-{[(2S)-oxolan-2-yl]methoxy}pyridin-4-yl)-1,5,6,7-tetrahydro-4H-pyrrolo[3,2-c]pyridin-4-one] | 3590 nM | 0.526 nM | – | 66.9 nM | 944 nM |
| COCC(C)Oc1cnccc1-c1[nH]c2c(c1Nc1cccc(Cl)c1C)C(=O)N[C@H](C)C2 (stereo partly drawn) [Example 105, (6R)-3-(3-chloro-2-methylanilino)-2-{3-[(1-methoxypropan-2-yl)oxy]pyridin-4-yl}-6-methyl-1,5,6,7-tetrahydro-4H-pyrrolo[3,2-c]pyridin-4-one] | 3700 nM | 0.324 nM | – | 44.7 nM | 884 nM |
| COc1c(Cl)cccc1Nc1c(-c2ccncc2OCC2CCCCN2C)[nH]c2c1C(=O)N[C@H](C)C2 (single isomer, unassigned) [Example 85] | – | 0.948 nM | > 20000 nM | 103 nM | 1170 nM |
| COc1c(Cl)cccc1Nc1c(-c2ccncc2OC[C@@H]2COCCN2C)[nH]c2c1C(=O)NCC2CCF (single isomer, unassigned) [Example 89] | 15600 nM | 0.278 nM | – | 18.2 nM | 425 nM |

The next lines start with results.

| IC50 (Bub1; [3]) | mutEGFR (D770_N771insSVD) kinase assay IC50 [2] | IC50 (Bub1; read-out: Bub1 high ATP (2 mM) IC50, TR-FRET) | SMILES | GI50 [1] | GI50 (Ba/F3-EGFR-WT cells) |
| --- | --- | --- | --- | --- | --- |
| 6190 nM | 0.198 nM | – | COc1c(Cl)cccc1Nc1c(-c2ccncc2OCC2COCCO2)[nH]c2c1C(=O)N[C@@H]1CCC[C@H]21 (single isomer, unassigned) [Example 54] | 42.4 nM | 675 nM |
| 1980 nM | 0.243 nM | – | COc1c(Cl)cccc1Nc1c(-c2ccncc2OCC[C@@H]2CCCO2)[nH]c2c1C(=O)N[C@H](C)C2 [Example 92, (6R)-3-(3-chloro-2-methoxyanilino)-6-methyl-2-(3-{2-[(2S)-oxolan-2-yl]ethoxy}pyridin-4-yl)-1,5,6,7-tetrahydro-4H-pyrrolo[3,2-c]pyridin-4-one] | 20.2 nM | 519 nM |
| 1440 nM | 0.51 nM | – | COc1c(Cl)cccc1Nc1c(-c2ccncc2OC[C@@H]2CCCCO2)[nH]c2c1C(=O)NC1(CCC1)C2 [Example 127, 3′-(3-chloro-2-methoxyanilino)-2′-(3-{[(2S)-oxan-2-yl]methoxy}pyridin-4-yl)-1′,7′-dihydrospiro[cyclobutane-1,6′-pyrrolo[3,2-c]pyridin]-4′(5′H)-one] | 12.1 nM | 406 nM |
| 439 nM | 0.241 nM | – | COc1c(Cl)cccc1Nc1c(-c2ccncc2OCC2COCCO2)[nH]c2c1C(=O)NC1(CCC1)C2 (stereo not shown) [Example 123, 3-(3-chloro-2-methoxy-anilino)-2-[3-(1,4-dioxan-2-ylmethoxy)-4-pyridyl]spiro[5,7-dihydro-1H-pyrrolo[3,2-c]pyridine-6,1′-cyclobutane]-4-one] | 33.9 nM | 604 nM |
| 1550 nM | 0.255 nM | – | Cc1c(Cl)cccc1Nc1c(-c2ccncc2OCC2COCCO2)[nH]c2c1C(=O)NCC2C (single isomer, unassigned) [Example 70, 3-(3-chloro-2-methyl-anilino)-2-[3-(1,4-dioxan-2-ylmethoxy)-4-pyridyl]-7-methyl-1,5,6,7-tetrahydropyrrolo[3,2-c]pyridin-4-one] | 224 nM | 4630 nM |
| 1480 nM | 0.394 nM | – | COc1c(Cl)cccc1Nc1c(-c2ccncc2OCC2COC(C)(C)CO2)[nH]c2c1C(=O)NC1(CC1)C2 (stereo not shown) [Example 132, 3′-(3-chloro-2-methoxyanilino)-2′-{3-[(5,5-dimethyl-1,4-dioxan-2-yl)methoxy]pyridin-4-yl}-1′,7′-dihydrospiro[cyclopropane-1,6′-pyrrolo[3,2-c]pyridin]-4′(5′H)-one] | 44.9 nM | 986 nM |
| 10200 nM | 0.217 nM | – | COc1c(Cl)cccc1Nc1c(-c2ccncc2OC[C@@H]2CCO2)[nH]c2c1C(=O)N[C@H](C)C2 [Example 6, (6R)-3-(3-chloro-2-methoxyanilino)-6-methyl-2-(3-{[(2S)-oxetan-2-yl]methoxy}pyridin-4-yl)-1,5,6,7-tetrahydro-4H-pyrrolo[3,2-c]pyridin-4-one] | 86.4 nM | 623 nM |
| > 20000 nM | 0.391 nM | – | COc1c(Cl)cccc1Nc1c(-c2ccncc2OCC2CCCCO2)[nH]c2c1C(=O)NCC2C (single isomer, unassigned) [Example 45, 3-(3-chloro-2-methoxy-anilino)-7-methyl-2-[3-(tetrahydropyran-2-ylmethoxy)-4-pyridyl]-1,5,6,7-tetrahydropyrrolo[3,2-c]pyridin-4-one] | 47.3 nM | 840 nM |
| 8240 nM | 0.101 nM | – | COc1c(F)cccc1Nc1c(-c2ccncc2OC[C@@H]2CCCO2)[nH]c2c1C(=O)NC(C)C2 (single isomer, unassigned) [Example 9] | 104 nM | 644 nM |
| > 20000 nM | 0.15 nM | – | COc1c(Cl)cccc1Nc1c(-c2ccncc2OCC2COC(C)(C)CO2)[nH]c2c1C(=O)N[C@H](C)C2 (mixture of isomers) [Example 77, (6R)-3-(3-chloro-2-methoxy-anilino)-2-{3-[(5,5-dimethyl-1,4-dioxan-2-yl)methoxy]-4-pyridyl}-6-methyl-1,5,6,7-tetrahydropyrrolo[3,2-c]pyridin-4-one] | 15.3 nM | 3200 nM |
| 11300 nM | 0.147 nM | – | COc1c(Cl)cccc1Nc1c(-c2ccncc2OC[C@@H]2CCCO2)[nH]c2c1C(=O)NCC2C (mixture of isomers) [Example 30, 3-(3-chloro-2-methoxy-anilino)-7-methyl-2-(3-{[(2S)-tetrahydrofuran-2-yl]methoxy}-4-pyridyl)-1,5,6,7-tetrahydropyrrolo[3,2-c]pyridin-4-one] | 44 nM | 606 nM |
| 7070 nM | 0.151 nM | – | COc1c(Cl)cccc1Nc1c(-c2ccncc2OCC2OCCC2(F)F)[nH]c2c1C(=O)N[C@H](C)C2 (single isomer, unassigned) [Example 72] | 36.6 nM | 628 nM |
